Measured values reported in article PMC9436819 (JACC: Basic to Translational Science, 2022).
Entries after “also recorded” stand apart in the source; their conditions may differ.

Legend:
[1] = Plasma pharmacokinetics in the CYP2D6 poor metabolizer cohort; type: in vivo, human
Method: CYP2D6 genotypes were determined at screening for all study participants; those identified as CYP2D6-PMs were excluded from the SAD and MAD cohorts but were invited to participate in the CYP2D6-PM cohort. The first individual in the CYP2D6-PM cohort was dosed after the SAD 25-mg cohort (Figure 1). […] Nine participants were randomized (7:2), with a sentinel dosing group consisting of the first 2 participants treated. For all study groups, blood samples for PK assessment were obtained predose, up to 12 times daily on day 1, and then at regular intervals throughout the study (see Supplemental Appendix for details). Standard noncompartmental methods were used to calculate PK parameters using Phoenix WinNonlin, version 7.0; actual sample collection times were used.

[2] = Plasma pharmacokinetics in the food-effect cohort; type: in vivo, human; conditions: single 10 mg; for CL/F / Vd/F / half-life: arithmetic mean ± SD; for Vd/F: read-out: Vz/F; for half-life: read-out: t½ (converted); for AUC(0-inf) / Cmax / AUC: geometric mean (geometric CV%); for AUC: read-out: AUC24
Description: Participants were randomized in a 1:1 ratio to 1 of 2 sequences: fasted/fed or fed/fasted. […] For all study groups, blood samples for PK assessment were obtained predose, up to 12 times daily on day 1, and then at regular intervals throughout the study (see Supplemental Appendix for details). Standard noncompartmental methods were used to calculate PK parameters using Phoenix WinNonlin, version 7.0; actual sample collection times were used.

rat and dog = conditions: cited from earlier work
[3] = CYP2D6 poor metabolizers, single 10 mg, arithmetic mean ± SD, n = 7
[4] = human, plasma, oral, CYP2D6 poor metabolizers, single 10 mg, geometric mean (geometric CV%), n = 7
[5] = human, plasma, oral, 10 mg, Fasted, n = 4
[6] = human, plasma, oral, 10 mg, Fasted, n = 10
[7] = human, plasma, oral, 10 mg, Fed, n = 7

CL/F [1, 3]: 3.6 ± 1.4 L/h
t½ [1, 3]: 110 h
half-life ([1]; human, plasma, oral, 10 mg, CYP2D6 poor metabolizers, single 10 mg, arithmetic mean ± SD, n = 7, read-out: t½ (converted)): 110 ± 47.3 h
Vd/F ([1]; human, plasma, oral, CYP2D6 poor metabolizers, single 10 mg, arithmetic mean ± SD, n = 7, read-out: Vz/F): 506 ± 84.4 L
AUC(0-inf) [1, 4]: 2970 ng·h/mL
Cmax [1, 4]: 57.3 ng/mL
AUC ([1]; human, plasma, oral, CYP2D6 poor metabolizers, single 10 mg, geometric mean (geometric CV%), n = 7, read-out: AUC24): 495 ng·h/mL
Tmax ([1]; human, plasma, oral, CYP2D6 poor metabolizers, single 10 mg, median (range), n = 7): 1 h
Effect of CYP2D6 poor metabolizer phenotype on the PK ([1]; single 10 mg): not affected; also recorded: no effect
Plasma mean concentrations in CYP2D6 poor metabolizers versus extensive metabolizers ([1]; single 10-mg dose): Modestly lower
CL/F ([2]; Fasted, n = 4): 2.8 ± 0.6 L/h
CL/F ([2]; Fed, n = 7): 3.1 ± 0.9 L/h
Vd/F [2, 5]: 346 ± 134 L
half-life [2, 5]: 84.4 ± 16.4 h
AUC(0-inf) [2, 5]: 3670 ng·h/mL
Cmax [2, 6]: 50.6 ng/mL
AUC [2, 6]: 601 ng·h/mL
Tmax ([2]; human, plasma, oral, 10 mg, Fasted, median (range), n = 10): 2.3 h
Cmax ([2]; human, plasma, oral, 10 mg, Fed (high-fat breakfast), n = 12): 65 ng/mL
Vd/F [2, 7]: 340 ± 100 L
half-life [2, 7]: 78 ± 8.1 h
AUC(0-inf) [2, 7]: 3410 ng·h/mL
AUC ([2]; human, plasma, oral, 10 mg, Fed, n = 12): 631 ng·h/mL
Increase of Cmax when taken with food ([2]; fed vs fasted): approximately 30%
SMILES: CCc1nc(-c2ccc3c(c2)CC[C@H]3NC(=O)c2cnn(C)c2)no1 [Aficamten]
Effect of food on the PK ([2]; fed vs fasted): not affected; also recorded: no significant effect; also recorded: no effect of food
Exposure-response relationship shallower than that of mavacamten (rat and dog; comparison in rats and dogs): roughly 3 fold
Ventricular contractility (rat and dog; rat and dog): reduces ventricular contractility in a dose- and exposure-dependent manner
